These results are taken from patent publication US20230355753A1, “BISPECIFIC ANTIBODY AGAINST CD3 AND CD20 IN COMBINATION THERAPY FOR TREATING DIFFUSE LARGE B-CELL LYMPHOMA” (GENMAB A/S, priority 2020, published 2023).

Data set [1] concerns CD20-expressing Raji-luc tumor cells. The following applies: even in the presence of an excess of rituximab variant with inert Fc domain (IgG1-RTX-FEAR); cited from earlier work.
Data set [2] relates to R/R DLBCL eligible for ASCT. Format: in vivo. The following applies: in combination with R-DHAX/C, preliminary. As for the experimental part:
The trial is conducted in 2 parts: dose escalation (Part 1) and expansion (Part 2). Subjects participate in only one part. Both parts consist of a screening period, a treatment period, a safety follow-up period, and a survival follow-up period.
Epcoritamab is initially be administered in combination with R-DHAX/C in a 3-subject cohort. DLTs are evaluated during the first 28 days.
Dexamethasone (40 mg) is administered intravenously or orally on days 1-4 of a cycle once every 3 weeks (Q3W) for cycles 1-3. Cytarabine (2 g/m^2) is administered intravenously on day 1 (usually over 3 hours), repeated after 12 hours (may result in a second dose on day 2 depending on timing of first dose), once every 3 weeks (Q3W) for cycles 1-3. […] Carboplatin (for DHAC) (AUC=5 mg/ml/min; Calvert's formula) is administered intravenously on day 1 once every 3 weeks (Q3W) for cycles 1-3.
CRS is graded according to the ASTCT grading for CRS (Tables 6 and 7), and for treatment of CRS, subjects should receive supportive care. […]

Data set [3] deals with R/R B-NHL. Put plainly: Ongoing clinical trial of epcoritamab monotherapy (NCT03625037). Format: in vivo. The source says: Epcoritamab as monotherapy is currently in a clinical trial for the treatment of relapsed/refractory (R/R) (ClinicalTrials.gov Identifier: NCT03625037).
Data set [4] concerns primary DLBCL and follicular lymphoma patient biopsies. To be noted: cited from earlier work.

Where two headings read alike, the source gives them in different places.

With “epcoritamab: IgG1 bispecific CD3xCD20 antibody, heavy/light chain pairs SEQ ID NOs: 24/25 and 26/27; CAS 2134641-34-0”, in data set [1], the “tumor growth in the xenograft model” value was “effectively reduce tumor growth”. Moreover, the responders observed in data set [2] (escalation phase, as of Sep. 8, 2021, total of 22 patients dosed, non-validated) turned out to be 4; in data set [2] (expansion phase 48 mg, as of Sep. 8, 2021, response data not completely entered) it was 0. In addition, the tolerated dose result in data set [3] (human, in vivo) is reported as “at least 48 mg”. The dose-limiting toxicities result in data set [3] (monotherapy, R/R B-NHL patients, preliminary data) is given as “no dose-limiting toxicities reported”. In data set [4] (biopsies taken a certain amount of time after administration of an anti-CD20 antibody), the T-cell-mediated cytotoxicity result was “induced T-cell-mediated cytotoxicity”. Moreover, the tumor cell kill entry in data set [4] (biopsy taken 2 weeks after administering the anti-CD20 antibody) is “up to 40%”.
